Data reported in patent US20110212196A1, “THERAPEUTIC OIL COMPOSITION CONTAINING CARVONE” (MAINE CONSERVATION MEDICINE CENTER, priority 2010, published 2011).

Key:
[1] = tested on: fish; conditions: in vivo; cited from earlier work
[2] = tested on: elasmobranch fishes; assay: anesthesia of elasmobranch fishes by immersion; format: in vivo, spiny dogfish Squalus acanthias; conditions: 400-600 mg/L carvone alone, oil-in-water emulsion
Source text: 3. […] For examples spiny dogfish Squalus acanthias can be anesthetized by immersion.

SMILES | safety during anesthesia/euthanasia [1] | anesthesia [2]
O=C=O [carbon dioxide] | Some fish died during anesthesia | 
C=C(C)C1CC=C(C)C(=O)C1 (centres unmarked) [carvone] |  | will anesthetize
